{"source": "patent US8354438B2", "about": "“Neurological functions” (priority 2001, dated 2013)", "key": {"children with ASD": {"system": "children with ASD", "assay": "Subsequent long-term observation of children with ASD on DH", "assay_type": "in vivo, human", "text": "We have subsequently followed over 100 children with ASD on DH for up to 20 months since the conclusion of this study. […] Further long-term use of cholinesterase inhibitors may lead to greater understanding of the possible ability to sustain new neuronal connections in a brain that has more neuronal plasticity than the elderly with Alzheimer's Disease."}, "[1]": {"system": "children with Autistic spectrum disorders", "settings": "for Rec. Speech Age (N = 31) / CARS (N = 35) / Exp. Speech Age (N = 31): Group I combined with Group II", "text": "American Psychiatric Association. Diagnostic and Statistical Manual of Mental Disorders (4th ed.). Washington, D.C.: Author 1994. Diagnosis was confirmed by a pediatric neurologist after completing a comprehensive neurological evaluation and also by a clinical interview with a clinical psychologist. No child was excluded based upon intelligence estimate or developmental language level.\nWe included patients with abnormal electroencephalograns (EEGs) as they represent an important section of the ASD population. Hollander, E. et al., J. Clin. Psychiatry 2001; 62(7): 530-534. […] Hollander, E. et al., J. Clin. Psychiatry 2001; 62(7): 530-534 DiMartino, A. and Tuchman, R. F., Pediatric Neurology 2001; 25(3): 199-207. Other patients were maintained on corticosteroids (N=6, pulse-dose prednisone or prednisolone), CNS stimulants (N=8, dextroamphetamine/amphetamine or methylphenidate), antidepressants (N=7, fluoxetine hydrochloride or paroxetine), antipsychotics (N=4, risperidone), or alpha adrenergic blocking agents (N=9, clonidine).\nThe standard donepezil dosage recommendation of 5 milligrams was halved in accordance with pediatric protocols to arrive at a quantity of 2.5 milligrams. The duration of the double-blind, parallel trial was six weeks, at which time all subjects entered open-label treatment for an additional six weeks.\nThe dose was lowered to 1.25 milligrams or discontinued throughout the 12-week trial if adverse events persisted for more than one week (e.g., irritability, hyperactivity, or gastrointestinal problems). The maximum daily dose was 2.5 milligrams. The medication was adjusted by halving the dose (1.25 mg) if parents noted their children to have tolerable yet persistent gastrointestinal distress, hyperactivity, or irritability. Medication was discontinued if GI intolerability or changes in behavior were considered to be an adverse event (i.e., persisted for more than […]). Medication was administered at dinnertime, unless restlessness occurred in sleep, in which case administration was changed to an earlier time in the day. Dinnertime was selected as the preferred administration time in an attempt to alleviate gastrointestinal side effects observed in the dementia population.\nAll staff, including nurses, were blinded to the status of the patients on either placebo or drug during the six-week double-blind phase. Patient progress and side effects were monitored at the scheduled appointments by study coordinators, nursing staff, and the primary investigator. Gardner's Receptive One-Word Picture Vocabulary Test (ROWPVT), the EOWPVT-R, and the Childhood Autism Rating Scale (CARS) were administered at baseline, 6-week, and 12-week follow-up visits by the same study coordinator (R.T.):\nOutcome Measures: The Receptive One-Word Picture Vocabulary Test, Gardner, M. F. Receptive One-Word Picture Vocabulary Test: ROWPVT. Novato, Calif.: Academic Therapy Publications 1985, examines a child's understanding of language and is an effective tool for assessing receptive language in children with expressive language difficulties. The test was developed for children ages two through twelve. Participants are shown a group of four pictures and asked to point to the picture corresponding to the word presented aurally by the clinician. The test is completed when the child makes six errors of eight consecutive items.\nThe Expressive One-Word Picture Vocabulary Test—Revised can be used as a tool to determine auditory-visual-verbal association ability as well as expressive language functioning in young children ages two through 12. Gardner, M. F. Expressive One-Word Picture Vocabulary Test (Revised): EOWPVT-R. Novato, Calif.: Academic Therapy Publications 1990. The test was developed to address general concrete concepts, grouping, abstract concepts, and descriptive concepts."}, "Helicobacter pylori": {"system": "Helicobacter pylori", "settings": "Matsukura and Tanaka 2000; cited from earlier work"}, "carnosinase": {"system": "carnosinase", "settings": "compared with the parent compound carnosine; Boldyrev 2000; cited from earlier work"}, "[2]": {"settings": "Group I (DH), Baseline to Week 6, placebo group 30%"}, "[3]": {"settings": "Group I (DH, DH) N = 23, BASELINE"}, "[4]": {"settings": "Group I (DH, DH), DH 2.5 milligrams, 6-WEEK, p < .05, BL compared to 6 week"}, "[5]": {"settings": "Group I (DH, DH), DH 2.5 milligrams, 12-WEEK, p < .05, BL compared to 6 and 12 week"}}, "note": "Counter-ions that a name gives are not always drawn. Like-named read-outs stand apart in the source and are kept apart here. Marks after values point to notes of the source that are not given here."}
{"smiles": "COc1cc2c(cc1OC)C(=O)C(CC1CCN(Cc3ccccc3)CC1)C2", "note": "(stereo not shown) [DH, donepezil hydrochloride]", "values": [{"measurement": "long-term deficits or down-regulation effect", "setting": "children with ASD; over 100 children with ASD on DH for up to 20 months", "value": "No obvious long-term deficits or suspected down-regulation effect"}, {"measurement": "regressions or lost skills after stopping the medication", "setting": "children with ASD; patients stopped the medication after 6 additional months", "value": "no patients had major regressions or lost skills"}, {"measurement": "children with CARS change scores ([Baseline]-[6 Week score]) indicating improvement of 3.0 or greater", "setting": "[1]; [2]", "value": 50, "unit": "%"}, {"measurement": "children with clinically meaningful worsening of CARS scores", "setting": "[1]; [2]", "value": 12.5, "unit": "%"}, {"measurement": "CARS", "setting": "[1]; [3]", "value": "34.7 (SD = 7.7)"}, {"measurement": "Exp. Speech Age (mos.)", "setting": "[1]; [3]", "value": "35.7 (SD = 27.8) mos."}, {"measurement": "Rec. Speech Age (mos.)", "setting": "[1]; [3]", "value": "38.8 (SD = 23.5) mos."}, {"measurement": "CARS", "setting": "[1]; Group I (DH, DH), DH 2.5 milligrams, 6-WEEK", "value": "33.3 (SD = 8.0)"}, {"measurement": "Exp. Speech Age (mos.)", "setting": "[1]; [4]", "value": "43.3 (SD = 27.2)* mos."}, {"measurement": "Rec. Speech Age (mos.)", "setting": "[1]; [4]", "value": "50.3 (SD = 27.0)* mos."}, {"measurement": "Exp. Speech Age (mos.)", "setting": "[1]; [5]", "value": "42.5 (SD = 28.5)*** mos."}, {"measurement": "Rec. Speech Age (mos.)", "setting": "[1]; [5]", "value": "49.7 (SD = 34.2)*** mos."}, {"measurement": "CARS", "setting": "[1]; Group I (DH, DH), DH 2.5 milligrams, 12-WEEK, p < .05, BL compared to 12 week", "value": "30.8 (SD = 7.9)**"}, {"measurement": "Rec. Speech Age (N = 31)", "setting": "[1]; 6-weeks DH, p value .002", "value": "53.2 (SD = 25.8)"}, {"measurement": "CARS (N = 35)", "setting": "[1]; 6-weeks DH, p value .004", "value": "32.2 (SD = 8.5)"}, {"measurement": "Exp. Speech Age (N = 31)", "setting": "[1]; 6-weeks DH, p value .044", "value": "43.6 (SD = 31.8)"}, {"measurement": "CARS (N = 35)", "setting": "[1]; BASELINE before six weeks DH", "value": "34.7 (SD = 7.4)"}, {"measurement": "Exp. Speech Age (N = 31)", "setting": "[1]; BASELINE before six weeks DH", "value": "39.3 (SD = 27.9)"}, {"measurement": "Rec. Speech Age (N = 31)", "setting": "[1]; BASELINE before six weeks DH", "value": "43.7 (SD = 22.2)"}, {"measurement": "Exp. Speech Age (mos.)", "setting": "[1]; Group II (Placebo, DH): six weeks placebo then six weeks DH, 12-WEEK, end of placebo 33.8 (SD = 32.9), reduced N (=16), p < .05", "value": "40.9 (SD = 38.8)***^@ mos."}, {"measurement": "Rec. Speech Age (mos.)", "setting": "[1]; Group II (Placebo, DH): six weeks placebo then six weeks DH, 12-WEEK, end of placebo 39.83 (SD = 27), reduced N (=16), p < .05, 6 compared to 12 week", "value": "87.37 (SD = 14.2)**^@ mos."}, {"measurement": "CARS", "setting": "[1]; Group II (Placebo, DH): six weeks placebo then six weeks DH, 12-WEEK, end of placebo (6-WEEK) 32.9 (SD = 7.7), p < .05", "value": "30.9 (SD = 9.1)*"}, {"measurement": "patients dropped from the study after the first 6 weeks who had been on DH", "setting": "[1]; of nine patients dropped", "value": "6/9"}, {"measurement": "patients discontinued due to diarrhea or stomach cramping", "setting": "[1]; of the 6 dropped patients on DH", "value": 2, "unit": "patients"}]}
{"smiles": "NCCC(=O)[N-][C@@H](Cc1c[nH]cn1)C(=O)[O-].[Zn+2]", "note": "[L-CAZ]", "values": [{"measurement": "Helicobacter pylori inhibition", "setting": "Helicobacter pylori", "value": "inhibited"}]}
{"smiles": "CC(=O)NCCC(=O)N[C@@H](Cc1cnc[nH]1)C(=O)O", "note": "[N-acetylcarnosine]", "values": [{"measurement": "rate of hydrolysis", "setting": "carnosinase", "value": "negligible"}]}
{"smiles": "NCCC(=O)NCCc1c[nH]cn1", "note": "[carcinine]", "values": [{"measurement": "rate of hydrolysis", "setting": "carnosinase", "value": "negligible"}]}
{"smiles": "Cn1cncc1C[C@H](NC(=O)CCN)C(=O)O", "note": "[ophidine, β-Alanlyl-3-methyl-L-histidine]", "values": [{"measurement": "rate of hydrolysis", "setting": "carnosinase", "value": "much more slowly"}]}
